Experimental data from patent US9999613B2, “2H-chromene derivatives as analgesic agents” (OBSHESTVO S OGRANICHENNOI OTVETSVENNOSTJU “LEOFORS”, priority 2014, dated 2018).
Marks after values point to notes of the source that are not given here.

Assays:
[1] = known drugs, data from ref. [2]; cited from earlier work
outbred mice [2] = assay: hot plate test (thermal irritation); assay type: in vivo
Description: (§1) Analgesic activity of compounds of general formula 1 was studied in the model of visceral pain <<acetic acid induced writhing test>> and thermal irritation test <<hot plate>> in white outbred mice of body mass 20-22 g in groups of 8 animals each after single administration in 1÷20 mg/kg doses.
Hot plate test characterizes thermal stimulus. The animals were placed on a copper plate, T=54° C. The effect was assessed by the duration of stay of the animal on the hot plate before the first vocalization.
Tests were carried out in outbred male mice of body mass 22-25 g. Experimental groups were formed, with 8 animals in each. The animals were placed on a copper hot plate, T=54° C. The effects were assessed by the duration of animal stay on the hot plate before the first <>, in seconds.
Test compounds were administered once intragastrically an hour before the test. Control animals received the corresponding solvent.

outbred mice [3] = assay: acetic acid induced writhing test (visceral pain model); assay type: in vivo; conditions: 0.5 mg/kg, intragastric
outbred mice [4] = assay: hot plate test (thermal irritation); assay type: in vivo; conditions: 0.5 mg/kg, intragastric
outbred mice [5] = assay: acetic acid induced writhing test (visceral pain model); assay type: in vivo
Description: as §1
Acetic acid induced writhing test was performed by intraperitoneal administration of 0.1 ml of 0.75% acetic acid to an animal. Activity was assessed by the quantity of writhing movements during 3 min.
Tests were carried out in outbred male mice with body mass 22-25 g. Experimental groups were formed, with 8 animals in each. <<Acetic writhes>> were produced by intraperitoneal administration of 0.75% acetic acid, 0.1 ml per animal. Test compounds were administered once intragastrically an hour before acetic acid administration. Animals that received only acetic acid were used as control. Activity was assessed by the quantity of writhes during 3 min.

white outbred mice = assay: acute toxicity, single intragastric administration, Kerber method
[6] = known drugs, data from ref. [2]; cited from earlier work; remark: listed apart in the source
[7] = 1 mg/kg dose, compared with sodium diclofenac 10 mg/kg
[8] = 10 mg/kg, intragastric, (exp − control)/control · 100%
[9] = 10 mg/kg, once intragastrically 1 h before test, plate 54° C, time to first vocalization
[10] = 10 mg/kg, intragastric, (control − exp)/control · 100%
[11] = 10 mg/kg, once intragastrically 1 h before 0.75% acetic acid i.p., writhes during 3 min

Structure (SMILES): CC(=O)Oc1ccccc1C(=O)O [Acetylsalicylic acid]
- ED50 in acetic acid induced writhing test [1]: 155 mg/kg

Structure (SMILES): CC1CCC2C(C1)OC(c1cccs1)CC2(C)O (stereo not shown) [Compound 1a, 4,7-dimethyl-2-(thiophene-2-yl)octahydro-2H-chromene-4-ol]
- analgesic activity in hot plate test (in words) (outbred mice [2]; [7]): potent analgesic activity
- Hot plate, sec. (Agent) (outbred mice [2]; 1 mg/kg, intragastric): 16.5 ± 1.9 s
- Protection, % (outbred mice [2]; 1 mg/kg, intragastric): 59%
- Hot plate, sec. (Agent) (outbred mice [2]; 5 mg/kg, intragastric): 16.3 ± 1.6 s
- Protection, % (outbred mice [2]; 5 mg/kg, intragastric): 57%
- analgesic activity in hot plate test (in words) (outbred mice [2]; 10 mg/kg dose): Reliable analgesic activity
- Protection, % (outbred mice [2]; [8]): 34%
- Hot plate, sec. (Agent) (outbred mice [2]; [9]): 13.1 ± 1.2 s
- Hot plate, sec. (Agent) (outbred mice [2]; 20 mg/kg, intragastric): 16.0 ± 2.6 s
- Protection, % (outbred mice [2]; 20 mg/kg, intragastric): 50%
- Pain reduction, % (outbred mice [3]): 27%
- Writhes, quantity (Agent) (outbred mice [3]): 7.4 ± 1.3
- Hot plate, sec. (Agent) (outbred mice [4]): 20.3 ± 2.2 s
- Protection, % (outbred mice [4]): 28%
- analgesic activity in acetic acid induced writhing test (in words) (outbred mice [5]; [7]): potent analgesic activity
- Pain reduction, % (outbred mice [5]; 1 mg/kg, intragastric): 71%
- Writhes, quantity (Agent) (outbred mice [5]; 1 mg/kg, intragastric): 2.4 ± 0.8
- Pain reduction, % (outbred mice [5]; 5 mg/kg, intragastric): 42%
- Writhes, quantity (Agent) (outbred mice [5]; 5 mg/kg, intragastric): 4.9 ± 1.0
- analgesic activity in acetic acid induced writhing test (in words) (outbred mice [5]; 10 mg/kg dose): more effective than sodium diclofenac
- Pain reduction, % (outbred mice [5]; [10]): 55%
- Writhes, quantity (Agent) (outbred mice [5]; [11]): 4.3 ± 1.1
- Pain reduction, % (outbred mice [5]; 20 mg/kg, intragastric): 25%
- Writhes, quantity (Agent) (outbred mice [5]; 20 mg/kg, intragastric): 8.3 ± 0.5
- acute toxicity classification (in words) (white outbred mice): moderately toxic

Structure (SMILES): Cc1ccsc1C1CC(C)(O)C2CCC(C)CC2O1 (stereo not shown) [Compound 1b, 4,7-dimethyl-2-(3-methylthiophene-2-yl)octahydro-2H-chromene-4-ol]
- Hot plate, sec. (Agent) (outbred mice [2]; [9]): 12.8 ± 1.7 s
- Pain reduction, % (outbred mice [5]; [10]): 36*** %
- Writhes, quantity (Agent) (outbred mice [5]; [11]): 7.0 ± 0.6

Structure (SMILES): Cc1ccc(C2CC(C)(O)C3CCC(C)CC3O2)s1 (stereo not shown) [Compound 1c, 4,7-dimethyl-2-(5-methylthiophene-2-yl)octahydro-2H-chromene-4-ol]
- Hot plate, sec. (Agent) (outbred mice [2]; [9]): 17.4 ± 2.4 s
- Pain reduction, % (outbred mice [5]; [10]): 39*** %
- Writhes, quantity (Agent) (outbred mice [5]; [11]): 6.6 ± 0.5

Structure (SMILES): CC1CCC2C(C1)OC(c1cc(Br)cs1)CC2(C)O (stereo not shown) [Compound 1d, 4,7-dimethyl-2-(4-bromothiophene-2-yl)octahydro-2H-chromene-4-ol]
- Protection, % (outbred mice [2]; [8]): 39%
- Hot plate, sec. (Agent) (outbred mice [2]; [9]): 13.6 ± 1.7 s
- analgesic activity in acetic acid induced writhing test (in words) (outbred mice [5]; 10 mg/kg dose): more effective than sodium diclofenac
- Pain reduction, % (outbred mice [5]; [10]): 63** %
- Writhes, quantity (Agent) (outbred mice [5]; [11]): 3.6 ± 1.5

Structure (SMILES): CC1CCC2C(C1)OC(c1ccc(Br)s1)CC2(C)O (stereo not shown) [Compound 1e, 4,7-dimethyl-2-(5-bromothiophene-2-yl)octahydro-2H-chromene-4-ol]
- Protection, % (outbred mice [2]; [8]): 18%
- Hot plate, sec. (Agent) (outbred mice [2]; [9]): 11.6 ± 1.0 s
- Pain reduction, % (outbred mice [5]; [10]): 34* %
- Writhes, quantity (Agent) (outbred mice [5]; [11]): 6.3 ± 1.2

Structure (SMILES): CC1CCC2C(C1)OC(c1ccc([N+](=O)[O-])s1)CC2(C)O (stereo not shown) [Compound 1f, 4,7-dimethyl-2-(5-nitrothiophene-2-yl)octahydro-2H-chromene-4-ol]
- Protection, % (outbred mice [2]; [8]): 20%
- Hot plate, sec. (Agent) (outbred mice [2]; [9]): 14.5 ± 1.6 s
- Pain reduction, % (outbred mice [5]; [10]): 32* %
- Writhes, quantity (Agent) (outbred mice [5]; [11]): 7.5 ± 1.2

Structure (SMILES): Cc1c(N(C)CS(=O)(=O)O)c(=O)n(-c2ccccc2)n1C [Metamizole]
- ED50 in acetic acid induced writhing test [1]: 55 mg/kg
- LD50 (acute toxicity) [6]: 3300 mg/kg

Structure (SMILES): O=C(O)Cc1ccccc1Nc1c(Cl)cccc1Cl [Sodium diclofenac, reference compound]
- Protection, % (outbred mice [2]; [8]): 62** %
- Hot plate, sec. (Agent) (outbred mice [2]; [9]): 15.6 ± 2.4 s
- ED50 in acetic acid induced writhing test [1]: 5 mg/kg
- Pain reduction, % (outbred mice [5]; [10]): 50*** %
- Writhes, quantity (Agent) (outbred mice [5]; [11]): 5.0 ± 1.1
